This passage reports IC50 results from ChEMBL document CHEMBL1125992, “Evaluation of bouvardin, deoxybouvardin, and RA-I - RA-VII partial structures: reassignment of the pharmacophore” (Bioorg Med Chem Lett, 1991).

≈ marks a conversion by molar mass, not a printed value. Starred links: 1 amine or outer side, 2 acyl side, 3 side chain; linkers in the order of their positions; H or OH if unused. Non-standard residues stand in square brackets, D forms with d. Residues, ends and D or L forms follow the SMILES beside them. ξ: configuration not given here. X1 = CN(CCc1ccc(Oc2cccc(CCC(=O)[*:2])c2)cc1)[*:1]; NMeY = CN[C@@H](Cc1ccc(O)cc1)C(=O)O; ξA = CC(N)C(=O)O

The test system of the experiment is L1210. The experiment is described as follows: In vitro cytotoxicity against L1210 (murine leukemia) cells. Type of experiment: functional, cell-based. To be noted: Mus musculus.

As for `COc1ccc(C[C@H]2C(=O)N[C@@H](C)C(=O)N(C)[C@H]3Cc4ccc(cc4)Oc4cc(ccc4OC)C[C@@H](C(=O)N[C@H](C)C(=O)N[C@@H](C)C(=O)N2C)N(C)C3=O)cc1`, the IC50 (in general, the concentration at which inhibition is half-maximal) is 0.002 µg/mL (≈ 0.00259 µM).

The molecule `O=C1CCc2ccc(cc2)Oc2cccc(c2)CCN1` yielded an IC50 above 100 µg/mL.

The molecule `COc1ccc(C[C@H]2C(=O)N[C@@H](C)C(=O)N(C)[C@H]3Cc4ccc(cc4)Oc4cc(ccc4O)C[C@@H](C(=O)N[C@H](C)C(=O)N[C@@H](C)C(=O)N2C)N(C)C3=O)cc1` registered an IC50 of 0.002 µg/mL (≈ 0.00264 µM).

As for `COC(=O)[C@@H]1Cc2ccc(cc2)Oc2cc(ccc2OC(=O)c2ccccc2)C[C@H](N(C)C(=O)OCc2ccccc2)C(=O)NC(C)C(=O)N[C@@H](C)C(=O)N(C)[C@@H](Cc2ccc(OC)cc2)C(=O)N[C@@H](C)C(=O)N1C` (stereo partly specified), the IC50 amounted to 10 µg/mL (≈ 9.74 µM).

`COc1ccc2cc1Oc1ccc(cc1)CCC(=O)NCC2` gave an IC50 above 100 µg/mL.

`COc1ccc(C[C@H]2C(=O)N[C@@H](C)C(=O)N(C)CC(=O)N(C)CC(=O)N[C@H](C)C(=O)N[C@@H](C)C(=O)N2C)cc1` had an IC50 above 100 µg/mL.

Molecule `COc1ccc(C[C@H]2C(=O)N[C@@H](C)C(=O)N(C)CCc3ccc(cc3)Oc3cccc(c3)CCC(=O)NC(C)C(=O)N[C@@H](C)C(=O)N2C)cc1` (stereo partly specified) (cyclo(A[NMeY](Me)A[X1][ξA])) came in with an IC50 of 20 µg/mL (≈ 29.2 µM).

As to `COC(=O)[C@@H]1Cc2ccc(OC)c(c2)Oc2ccc(cc2)C[C@H](N(C)C(=O)OCc2ccccc2)C(=O)N1C`, the IC50 was 0.04 µg/mL (≈ 0.0751 µM).

As to `COc1ccc(C[C@H]2C(=O)N[C@@H](C)C(=O)N[C@H](C)C(=O)N[C@@H](C)C(=O)N2C)cc1`, the IC50 was determined as 20 µg/mL (≈ 49.4 µM).

Molecule `COC(=O)[C@@H]1Cc2ccc(OC)c(c2)Oc2ccc(cc2)C[C@H](N(C)C(=O)OC(C)(C)C)C(=O)N1` showed an IC50 of 0.06 µg/mL (≈ 0.124 µM).

Regarding `COc1ccc(C[C@H]2C(=O)N[C@@H](C)C(=O)N(C)[C@H]3Cc4ccc(cc4)Oc4cc(ccc4OC)C[C@H](NC3=O)C(=O)N[C@H](C)C(=O)N[C@@H](C)C(=O)N2C)cc1`, the midpoint of inhibition, the IC50, lay at 0.001 µg/mL (≈ 0.00132 µM).

In turn, `CN1CCc2cccc(c2)Oc2ccc(cc2)CCC1=O` displayed an IC50 above 100 µg/mL.

Regarding `COc1ccc2cc1Oc1ccc(cc1)CCC(=O)N(C)CC2`, the IC50 is above 100 µg/mL.

The molecule `COc1ccc(C[C@H]2C(=O)N[C@@H](C)C(=O)N(C)[C@@H](Cc3ccc(O)cc3)C(=O)N(C)[C@@H](Cc3ccc(O)cc3)C(=O)N[C@H](C)C(=O)N[C@@H](C)C(=O)N2C)cc1` showed an IC50 above 100 µg/mL.

Turning to `COC(=O)[C@@H]1Cc2ccc(O)c(c2)Oc2ccc(cc2)CCC(=O)N1`, the IC50 was above 100 µg/mL.

Take `COc1ccc(C[C@H]2C(=O)N[C@@H](C)C(=O)N(C)Cc3ccccc3CC(=O)N[C@H](C)C(=O)N[C@@H](C)C(=O)N2C)cc1`: the IC50 worked out at 25 µg/mL (≈ 44.2 µM).

Take `COC(=O)[C@@H]1Cc2ccc(OC)c(c2)Oc2ccc(cc2)CCC(=O)N1`: the IC50 is above 100 µg/mL.

Take `COc1ccc(C[C@H]2C(=O)N[C@@H](C)C(=O)N(C)[C@H]3C(=O)N(C)[C@H]3C(=O)NC(C)C(=O)N[C@@H](C)C(=O)N2C)cc1` (stereo partly specified): it took 50 µg/mL (≈ 91.8 µM) to reach half-maximal inhibition (IC50).

`COC(=O)[C@@H]1Cc2ccc(OC)c(c2)Oc2ccc(cc2)C[C@H](N(C)C(=O)OC(C)(C)C)C(=O)N1C` gave a 50% inhibitory concentration (IC50) of 0.03 µg/mL (≈ 0.0602 µM).

For `COC(=O)[C@@H]1Cc2ccc(OC)c(c2)Oc2ccc(cc2)C[C@H](N(C)C(=O)OCc2ccccc2)C(=O)N1`, half-maximal inhibition (IC50) was put at 0.05 µg/mL (≈ 0.0964 µM).

`CN[C@H]1Cc2ccc(O)c(c2)Oc2ccc(cc2)C[C@@H](C(=O)O)N(C)C(=O)[C@H](C)NC(=O)[C@H](Cc2ccc(OC)cc2)N(C)C(=O)[C@H](C)NC(=O)[C@@H](C)NC1=O`: half-maximal inhibition (IC50) was put at 10 µg/mL (≈ 12.9 µM).
